# Results taken from US11858956B2, “6-aza-nucleoside prodrugs as antiviral agents for treating virus infections” (Southern Research Institute, priority 2020, dated 2024).
# Key:
# Assay type in all cases: cell-based
# [1] = system: WNV; assay: Antiviral activity against WNV in HEK293 cells; conditions: West Nile virus; for EC90: HEK293, read-out: WNV (HEK293 cells) EC90; for log reduction at 10 µM: HEK293, read-out: WNV (HEK293 cells) VTR (virus titer reduction)
# [2] = Cytotoxicity (CC50) in HEK293 cells; conditions: human, WNV
# Procedure: (§1) As used herein, “CC50” is intended to refer to the concentration of a substance (e.g., a compound or a drug) that is required for 50% reduction of cell viability. In one aspect, an CC50 can refer to the concentration of a substance that is required for 50% reduction (i.e., cytotoxicity) in vivo, as further defined elsewhere herein.
# The antiviral activity against Alpharviruses evaluated in HEK293 cells (4 hours pre-incubation with compound before infected with virus) is shown in Table 2 below. VTR=Virus titer reduction in log at 10 μM concentration. NT: not tested, ND: not determined
# [3] = system: DENV; assay: Antiviral activity against DENV in HEK293 cells; conditions: Dengue virus; for EC90: HEK293, read-out: DENV (HEK293 cells) EC90; for log reduction at 10 µM: HEK293, read-out: DENV (HEK293 cells) VTR (virus titer reduction)
# [4] = system: ZIKA; assay: Antiviral activity against ZIKA in HEK 293 cells; conditions: Zika virus; for EC90: HEK293, read-out: ZIKA (HEK 293 cells) EC90; for log reduction at 10 µM: HEK293, read-out: ZIKA (HEK 293 cells) VTR (virus titer reduction)
# [5] = system: CHIKV; assay: Antiviral activity against CHIKV in NHDF cells; conditions: Chikungunya virus; for EC90: read-out: CHIKV (NHDF cells) EC90; for log reduction at 10 µM: read-out: CHIKV (NHDF cells) VTR (virus titer reduction)
# [6] = Cytotoxicity (CC50) in NHDF cells; conditions: human, CHIKV
# Procedure: as §1
# VTR=Virus titer reduction in log at 10 μM concentration. NT: not tested, ND: not determined.
# [7] = system: VEEV; assay: microbe, parasite or virus in culture; conditions: Venezuelan equine encephalitis virus, NHDF; for EC90: read-out: VEEV (NHDF cells) EC90; for log reduction at 10 µM: read-out: VEEV (NHDF cells) VTR (virus titer reduction)
# [8] = system: H1N1 strain; assay: Antiviral activity against Influenza H1N1 strain in MDCK cells; conditions: Influenza A virus, at 20 μM concentration, 4-6 hours pre-incubation, read-out: H1N1 strain (MDCK cells) VTR (virus titer reduction)
# Procedure: (§2) The antiviral activity against Influenza viruses (H1N1 and H3N2 strains) evaluated in MDCK cells (4-6 hours pre-incubation with compound) shown in Table 5 below. VTR=Virus titer reduction in log at 20 μM concentration. NT: not tested, ND: not determined.
# [9] = Cytotoxicity (CC50) in MDCK cells; conditions: dog, H1N1
# Procedure: as §1, §2
# [10] = system: H3N2 strain; assay: Antiviral activity against Influenza H3N2 strain in MDCK cells; conditions: Influenza A virus, at 20 μM concentration, 4-6 hours pre-incubation, read-out: H3N2 strain (MDCK cells) VTR (virus titer reduction)
# Procedure: as §2
SMILES,EC90 [1],log reduction at 10 µM [1],CC50 [2],EC90 [3],log reduction at 10 µM [3],EC90 [4],log reduction at 10 µM [4],EC90 [5],log reduction at 10 µM [5],CC50 [6],EC90 [7],log reduction at 10 µM [7],log reduction at 20 µM [8],CC50 [9],log reduction at 20 µM [10]
"C[C@H](NP(=O)(OC[C@H]1O[C@@H](n2ncc(=O)[nH]c2=O)[C@H](O)[C@@H]1O)Oc1ccccc1)C(=O)OCc1ccc([N+](=O)[O-])o1 (mixture of isomers) [Compound 1, (5-nitrofuran-2-yl)methyl ((((2R,3S,4R,5R)-5-(3,5-dioxo-4,5-dihydro-1,2,4-triazin-2(3H)-yl)-3,4-dihydroxytetra-hydrofuran-2-yl)methoxy)(phenoxy)phosphoryl)-L-alaninate]",0.6 µM,3.8,40 µM,1.9 µM,2.4,3.2 µM,2.2,0.95 µM,4.3,> 40 µM,> 10 µM,0.85,1.6,> 100 µM,0.6
"C[C@H](NP(=O)(OC[C@H]1O[C@@H](n2ncc(=O)[nH]c2=O)[C@H](O)[C@@H]1O)Oc1ccccc1)C(=O)OCc1ccccc1 (mixture of isomers) [Compound 2, Benzyl ((((2R,3S,4R,5R)-5-(3,5-dioxo-4,5-dihydro-1,2,4-triazin-2(3H)-yl)-3,4-dihydroxytetrahydrofuran-2-yl)methoxy)-(phenoxy)phosphoryl)-L-alaninate]",1.3 µM,3,> 40 µM,6.9 µM,1.3,16 µM,,0.4 µM,0,> 40 µM,> 10 µM,0,2.3,> 100 µM,0.9
"CC(C)OC(=O)[C@H](C)NP(=O)(OC[C@H]1O[C@@H](n2ncc(=O)[nH]c2=O)[C@H](O)[C@@H]1O)Oc1ccccc1 (mixture of isomers) [Compound 5, isopropyl ((((2R,3S,4R,5R)-5-(3,5-dioxo-4,5-dihydro-1,2,4-triazin-2(3H)-yl)-3,4-dihydroxytetrahydrofuran-2-yl)methoxy)(phenoxy)phosphoryl)-L-alaninate]",> 30 µM,,,> 30 µM,,> 30 µM,,> 10 µM,0.15,> 40 µM,> 10 µM,0,0.2,> 100 µM,-0.1
"CCOC(=O)[C@H](C)NP(=O)(OC[C@H]1O[C@@H](n2ncc(=O)[nH]c2=O)[C@H](O)[C@@H]1O)Oc1ccccc1 (mixture of isomers) [Compound 6, ethyl ((((2R,3S,4R,5R)-5-(3,5-dioxo-4,5-dihydro-1,2,4-triazin-2(3H)-yl)-3,4-dihydroxytetrahydrofuran-2-yl)methoxy)-(phenoxy)phosphoryl)-L-alaninate]",10 µM,,> 40 µM,> 15 µM,,12 µM,,> 10 µM,0,> 40 µM,> 10 µM,0,1.6,> 100 µM,0.2
"COC(=O)[C@H](C)NP(=O)(OC[C@H]1O[C@@H](n2ncc(=O)[nH]c2=O)[C@H](O)[C@@H]1O)Oc1ccccc1 (mixture of isomers) [Compound 7, methyl ((((2R,3S,4R,5R)-5-(3,5-dioxo-4,5-dihydro-1,2,4-triazin-2(3H)-yl)-3,4-dihydroxytetrahydrofuran-2-yl)methoxy)-(phenoxy)phosphoryl)-L-alaninate]",4.3 µM,2.6,40 µM,5 µM,3.2,7.6 µM,1.3,> 10 µM,0,> 40 µM,> 10 µM,0,3.4,> 100 µM,1.6
